Data: PubChem BioAssay AID1259407 (Chemical Carcinogenesis Research Information System (CCRIS), 2018)
Activity calls are given as the source filed them. The rule behind the calls is not given here.

Test system: CCRIS mutagenicity, Ames/micronucleus/aberration tests
Assay: CCRIS mutagenicity studies
[1] = Test System: AMES SALMONELLA TYPHIMURIUM, Strain/Indicator: TA98, Metabolic Activation: NONE, Method: STANDARD PLATE
[2] = Test System: AMES SALMONELLA TYPHIMURIUM, Strain/Indicator: TA100, Metabolic Activation: NONE, Method: STANDARD PLATE
[3] = Test System: AMES SALMONELLA TYPHIMURIUM, Strain/Indicator: TA1535, Metabolic Activation: NONE, Method: STANDARD PLATE
[4] = Test System: AMES SALMONELLA TYPHIMURIUM, Strain/Indicator: TA1537, Metabolic Activation: NONE, Method: STANDARD PLATE
[5] = Test System: AMES SALMONELLA TYPHIMURIUM, Strain/Indicator: TA1538, Metabolic Activation: NONE, Method: STANDARD PLATE

Measured: mutagenic call

O=S(=O)(O)c1cc(S(=O)(=O)O)c2cc(O)ccc2c1
inactive: Test System: AMES SALMONELLA TYPHIMURIUM, Strain/Indicator: TA98, Metabolic Activation: NONE, Method: PREINCUBATION inactive; negative | Test System: AMES SALMONELLA TYPHIMURIUM, Strain/Indicator: TA98, Metabolic Activation: RAT LIVER S-9, PHENOBARBITAL AND BETA-NAPHTHOFLAVONE, Method: PREINCUBATION inactive; negative | Test System: AMES SALMONELLA TYPHIMURIUM, Strain/Indicator: TA98, Metabolic Activation: RAT, LIVER, S-9, PHENOBARBITAL, Method: PREINCUBATION inactive; negative | Test System: AMES SALMONELLA TYPHIMURIUM, Strain/Indicator: TA100, Metabolic Activation: NONE, Method: PREINCUBATION inactive; negative | Test System: AMES SALMONELLA TYPHIMURIUM, Strain/Indicator: TA100, Metabolic Activation: RAT LIVER S-9, PHENOBARBITAL AND BETA-NAPHTHOFLAVONE, Method: PREINCUBATION inactive; negative | Test System: AMES SALMONELLA TYPHIMURIUM, Strain/Indicator: TA100, Metabolic Activation: RAT, LIVER, S-9, PHENOBARBITAL, Method: PREINCUBATION inactive; negative | Test System: AMES SALMONELLA TYPHIMURIUM, Strain/Indicator: TA1535, Metabolic Activation: NONE, Method: PREINCUBATION inactive; negative | Test System: AMES SALMONELLA TYPHIMURIUM, Strain/Indicator: TA1535, Metabolic Activation: RAT LIVER S-9, PHENOBARBITAL AND BETA-NAPHTHOFLAVONE, Method: PREINCUBATION inactive; negative | Test System: AMES SALMONELLA TYPHIMURIUM, Strain/Indicator: TA1537, Metabolic Activation: NONE, Method: PREINCUBATION inactive; negative | Test System: AMES SALMONELLA TYPHIMURIUM, Strain/Indicator: TA1537, Metabolic Activation: RAT LIVER S-9, PHENOBARBITAL AND BETA-NAPHTHOFLAVONE, Method: PREINCUBATION inactive; negative | Test System: AMES SALMONELLA TYPHIMURIUM, Strain/Indicator: TA1538, Metabolic Activation: NONE, Method: PREINCUBATION inactive; negative | Test System: AMES SALMONELLA TYPHIMURIUM, Strain/Indicator: TA1538, Metabolic Activation: RAT LIVER S-9, PHENOBARBITAL AND BETA-NAPHTHOFLAVONE, Method: PREINCUBATION inactive; negative | Test System: E.COLI, Strain/Indicator: WP2UVRA, Metabolic Activation: NONE, Method: PREINCUBATION inactive; negative | Test System: E.COLI, Strain/Indicator: WP2UVRA, Metabolic Activation: RAT LIVER S-9, PHENOBARBITAL AND BETA-NAPHTHOFLAVONE, Method: PREINCUBATION inactive; negative

CC(C)OC(=O)COc1ccc(Cl)cc1Cl
inactive: [1] inactive; negative | Test System: AMES SALMONELLA TYPHIMURIUM, Strain/Indicator: TA98, Metabolic Activation: RAT LIVER S-9, AROCLOR 1254, 10%, Method: STANDARD PLATE inactive; negative | [2] inactive; negative | Test System: AMES SALMONELLA TYPHIMURIUM, Strain/Indicator: TA100, Metabolic Activation: RAT LIVER S-9, AROCLOR 1254, 10%, Method: STANDARD PLATE inactive; negative | [3] inactive; negative | Test System: AMES SALMONELLA TYPHIMURIUM, Strain/Indicator: TA1535, Metabolic Activation: RAT LIVER S-9, AROCLOR 1254, 10%, Method: STANDARD PLATE inactive; negative | [4] inactive; negative | Test System: AMES SALMONELLA TYPHIMURIUM, Strain/Indicator: TA1537, Metabolic Activation: RAT LIVER S-9, AROCLOR 1254, 10%, Method: STANDARD PLATE inactive; negative | [5] inactive; negative | Test System: AMES SALMONELLA TYPHIMURIUM, Strain/Indicator: TA1538, Metabolic Activation: RAT LIVER S-9, AROCLOR 1254, 10%, Method: STANDARD PLATE inactive; negative | Test System: UDS RAT HEPATOCYTES, Strain/Indicator: THYMIDINE INCORPORATION, Metabolic Activation: NONE, Method: AUTORADIOGRAPHY inactive; negative

CN(C)N=Nc1ccc(Cl)cc1
active: Test System: AMES SALMONELLA TYPHIMURIUM, Strain/Indicator: G46, Metabolic Activation: RAT, LIVER, S-9, PHENOBARBITAL, Method: STANDARD PLATE active; positive | Test System: AMES SALMONELLA TYPHIMURIUM, Strain/Indicator: TA97, Metabolic Activation: MOUSE, LIVER, S-9, POLYCHLORINATED BIPHENYLS, Method: PREINCUBATION active; positive | Test System: AMES SALMONELLA TYPHIMURIUM, Strain/Indicator: TA97, Metabolic Activation: MOUSE, LIVER, S-9, POLYCHLORINATED BIPHENYLS, Method: STANDARD PLATE active; positive | Test System: AMES SALMONELLA TYPHIMURIUM, Strain/Indicator: TA98, Metabolic Activation: MOUSE, LIVER, S-9, POLYCHLORINATED BIPHENYLS, Method: PREINCUBATION active; positive | Test System: AMES SALMONELLA TYPHIMURIUM, Strain/Indicator: TA98, Metabolic Activation: MOUSE, LIVER, S-9, POLYCHLORINATED BIPHENYLS, Method: STANDARD PLATE active; positive | [1] active; positive | Test System: AMES SALMONELLA TYPHIMURIUM, Strain/Indicator: TA100, Metabolic Activation: MOUSE, LIVER, S-9, POLYCHLORINATED BIPHENYLS, Method: PREINCUBATION active; positive | Test System: AMES SALMONELLA TYPHIMURIUM, Strain/Indicator: TA1535, Metabolic Activation: MOUSE, LIVER, S-9, POLYCHLORINATED BIPHENYLS, Method: PREINCUBATION active; positive | Test System: AMES SALMONELLA TYPHIMURIUM, Strain/Indicator: TA1537, Metabolic Activation: MOUSE, LIVER, S-9, POLYCHLORINATED BIPHENYLS, Method: PREINCUBATION active; positive | Test System: AMES SALMONELLA TYPHIMURIUM, Strain/Indicator: TA1537, Metabolic Activation: MOUSE, LIVER, S-9, POLYCHLORINATED BIPHENYLS, Method: STANDARD PLATE active; positive | [4] active; positive | Test System: AMES SALMONELLA TYPHIMURIUM, Strain/Indicator: TA1538, Metabolic Activation: MOUSE, LIVER, S-9, POLYCHLORINATED BIPHENYLS, Method: PREINCUBATION active; positive | Test System: AMES SALMONELLA TYPHIMURIUM, Strain/Indicator: TA1538, Metabolic Activation: MOUSE, LIVER, S-9, POLYCHLORINATED BIPHENYLS, Method: STANDARD PLATE active; positive
inactive: Test System: AMES SALMONELLA TYPHIMURIUM, Strain/Indicator: TA92, Metabolic Activation: MOUSE, LIVER, S-9, POLYCHLORINATED BIPHENYLS, Method: PREINCUBATION inactive; negative | Test System: AMES SALMONELLA TYPHIMURIUM, Strain/Indicator: TA92, Metabolic Activation: MOUSE, LIVER, S-9, POLYCHLORINATED BIPHENYLS, Method: STANDARD PLATE inactive; negative | Test System: AMES SALMONELLA TYPHIMURIUM, Strain/Indicator: TA92, Metabolic Activation: NONE, Method: STANDARD PLATE inactive; negative | Test System: AMES SALMONELLA TYPHIMURIUM, Strain/Indicator: TA97, Metabolic Activation: NONE, Method: STANDARD PLATE inactive; negative | Test System: AMES SALMONELLA TYPHIMURIUM, Strain/Indicator: TA100, Metabolic Activation: MOUSE, LIVER, S-9, POLYCHLORINATED BIPHENYLS, Method: STANDARD PLATE inactive; negative | [2] inactive; negative | Test System: AMES SALMONELLA TYPHIMURIUM, Strain/Indicator: TA1535, Metabolic Activation: MOUSE, LIVER, S-9, POLYCHLORINATED BIPHENYLS, Method: STANDARD PLATE inactive; negative | [3] inactive; negative | [5] inactive; negative

c1ccc2c(c1)[nH]c1cnccc12
inactive: Test System: AMES SALMONELLA TYPHIMURIUM, Strain/Indicator: TA98, Metabolic Activation: RAT, LIVER, S-9, AROCLOR 1254, Method: PREINCUBATION inactive; negative
